From ChEMBL document CHEMBL3137667, “[Drug-induced liver injury; fourteenth updated edition of the bibliographic database of liver injuries and related drugs]” (Gastroenterol Clin Biol, 2004)
Where a SMILES comes first, the peptide text is derived from it. Bridges are numbered along the chain shown (N, C = ends). [ ]: non-standard residue; d: D form. The star is where a group is joined. NMePhe(4-NMe2) = CN[C@@H](Cc1ccc(N(C)C)cc1)C(=O)O; Pip(4-oxo) = O=C1CCN[C@H](C(=O)O)C1; Picolinoyl(3-OH) = O=C(c1ncccc1O)*; Phg = N[C@H](C(=O)O)c1ccccc1; dAbu = CC[C@@H](N)C(=O)O

Key:
[1] = Highest frequency of moderate liver toxicity observed during clinical trials, expressed as a percentage. [column '% BIOL' in source]; conditions: human
[2] = Highest frequency of acute liver toxicity observed during clinical trials, expressed as a percentage. [column '% AIGUE' in source]; conditions: human
[3] = Times to onset, minimal and maximal, observed in the indexed observations. [column 'DELAI' in source]; conditions: human
[4] = human, serum
[5] = human, serum; remark: listed apart in the source
[6] = human
[7] = human; remark: listed apart in the source
[8] = human; remark: listed apart in the source
[9] = human, serum, 4383 h
[10] = human; remark: listed apart in the source
[11] = human; remark: listed apart in the source
[12] = human; remark: listed apart in the source
[13] = human; remark: listed apart in the source
[14] = human; remark: listed apart in the source
[15] = human; remark: listed apart in the source
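For Hepatotoxicity (association with vascular disease) in this document: count of indexed literature references reporting vascular liver injury in humans, e.g. peliosis hepatitis, hepatic veno-occlusive disease or Budd-Chiari syndrome.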
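For Hepatotoxicity (benign tumour) in this document: value is a count of indexed literature references citing a benign tumour confirmed by histopathology.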
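For Hepatotoxicity (choleostasis) in this document: human cholestatic liver injury, shown by histopathology or by peak ALT or AST elevation over alkaline phosphatase ratio below 2, value counts indexed literature reports.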
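For Hepatotoxicity (chronic liver disease) in this document: chronic liver injury confirmed by histopathology or persistently raised serum aminotransferase activity beyond 6 months, value given as the count of indexed literature references.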
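For Hepatotoxicity (cirrhosis) in this document: value is a count of indexed literature references reporting cirrhosis confirmed by histopathology.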
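For Hepatotoxicity (cytolytic) in this document: human cytolytic liver injury, shown by histopathology or by a ratio above 5 of peak ALT or AST elevation to alkaline phosphatase elevation, value counts indexed references.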
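For Hepatotoxicity (granulomatous hepatitis) in this document: value is a count of indexed literature references reporting granulomatous liver disease confirmed by histopathology.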
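For Hepatotoxicity (malignant tumour) in this document: malignant tumour confirmed by histopathology, value gives the count of indexed literature references reporting it.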
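For Hepatotoxicity (severe hepatitis) in this document: human clinical data: severe hepatitis, meaning potentially life-threatening liver failure or clinically observed cases, the value counts how many indexed literature references report it.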
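For Hepatotoxicity (steatosis) in this document: steatosis confirmed by histopathology, value is the count of indexed references.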

Structure (SMILES)	Hepatotoxicity (moderate) [1] [%]	Hepatotoxicity (acute) [2] [%]	Hepatotoxicity (time to onset) [3]	Hepatotoxicity (moderate) [4]	Hepatotoxicity (acute) [5]	Hepatotoxicity (cytolytic) [6]	Hepatotoxicity (choleostasis) [7]	Hepatotoxicity (severe hepatitis) [8]	Hepatotoxicity (chronic liver disease) [9]	Hepatotoxicity (cirrhosis) [10]	Hepatotoxicity (granulomatous hepatitis) [11]	Hepatotoxicity (association with vascular disease) [12]	Hepatotoxicity (steatosis) [13]	Hepatotoxicity (malignant tumour) [14]	Hepatotoxicity (benign tumour) [15]
OC[C@H]1O[C@@H](n2cnc3c2NC=NC[C@H]3O)C[C@@H]1O [PENTOSTATIN]	81.3	0	1 day - 2 months	16	1	1	0	2	0	0	0	0	1	0	0
CC(=O)CCCCn1c(=O)c2c(ncn2C)n(C)c1=O [PENTOXIFYLLINE]	0	0	3 weeks	0	2	0	2	0	0	0	0	0	0	0	0
CCC[C@H](N[C@@H](C)C(=O)N1[C@H](C(=O)O)C[C@@H]2CCCC[C@@H]21)C(=O)OCC [PERINDOPRIL]	12.2	0	3 weeks	1	1	1	0	0	0	0	0	0	0	0	0
OCCN1CCN(CCCN2c3ccccc3Sc3ccc(Cl)cc32)CC1 [PERPHENAZINE]	23.4	0.3	2 months	2	5	1	4	0	0	0	0	0	0	0	0
[H]/N=C(/N)N/C(=N/[H])NCCc1ccccc1 [PHENFORMIN]	0	0	1 week	0	1	0	0	0	0	0	0	0	0	0	0
CC(COc1ccccc1)NN (stereo not given) [PHENOXYPROPAZINE]	0	0	1.5 months - 4 months	0	3	3	0	3	0	0	0	0	0	0	0
O=c1[nH]c2ccccc2n1C1CCN(CCCC(c2ccc(F)cc2)c2ccc(F)cc2)CC1 [PIMOZIDE]	0	0	3 days	2	0	0	0	0	0	0	0	0	0	0	0
O=C(CCBr)N1CCN(C(=O)CCBr)CC1 [PIPOBROMAN]	0	0	2 months	0	1	1	0	0	0	0	0	0	0	0	0
NS(=O)(=O)c1cc(C(=O)O)cc(N2CCCC2)c1Oc1ccccc1 [PIRETANIDE]	0	0	3 weeks	0	1	1	0	0	0	0	0	0	0	0	0
c1cnc(N2CCN(Cc3ccc4c(c3)OCO4)CC2)nc1 [PIRIBEDIL]	10	0	12 days - 2.5 months	2	0	0	0	0	0	0	0	0	0	0	0
CN1CCC(=C2c3ccccc3CCc3sccc32)CC1 [PIZOTYLINE]	0	0	12 days	0	1	0	1	0	0	0	0	0	0	0	0
CC[C@H]1NC(=O)[C@@H](NC(=O)c2ncccc2O)[C@@H](C)OC(=O)[C@H](c2ccccc2)NC(=O)[C@@H]2CC(=O)CCN2C(=O)[C@H](Cc2ccc(N(C)C)cc2)N(C)C(=O)[C@@H]2CCCN2C1=O [PRISTINAMYCIN 1A] ({Picolinoyl(3-OH)}-T[dAbu]P[NMePhe(4-NMe2)][Pip(4-oxo)][Phg]; ester 1-C)	0	0	1.5 months	0	1	1	0	0	0	0	0	0	0	0	0
NC(=O)CCC/N=C(\c1ccc(Cl)cc1)c1cc(F)ccc1O [PROGABIDE]	30	3.4	2 weeks - 6 months	6	6	4	0	4	0	0	0	0	0	0	0
[H]/N=C(\N/C(=N/[H])Nc1ccc(Cl)cc1)NC(C)C [PROGUANIL]	16	0	6 weeks	1	1	1	0	0	0	0	0	0	0	0	0
